Legend:
[1] = Pharmacokinetic study, brain distribution test (TM in brain and whole blood); assay type: in vivo, SD rats; conditions: single gavage to rats
Description: (§1) The SD rats used in this test were purchased from Zhejiang Charles rive Laboratory Animal Co., Ltd. Both male and female rats of SPF grade weighting about 250 g were used.
(§2) Preparation of the test article: a proper amount of test article was weighed and ground as fine powder in a mortar. A certain amount of the vehicle was added to a proper container, and then the ground test article was added to the container under magnetic stirring. The mixture was stirred until the appearance is uniform.
The male SD rats were divided into three groups (16 rats in each group) (4 animals were sacrificed at 4 time points). […] The animals were sacrificed at 5 min, 1 h, 3 h, and 9 h after the administration. The brain was taken out immediately after sacrifice, rinsed with ice-cold water and rinsed. 50 mg of the brain tissue was weighed, added to 0.45 mL of 100 mM dipotassium hydrogen phosphate buffer (pH=5.0) and homogenized. Blood samples were taken simultaneously and anticoagulated with EDTA. After collection, blood samples were placed on ice. 150 μL of whole blood was taken and 150 μL of 5.2% perchloric acid was added to determine TM. Another 4 animals were gavage administered with normal saline for the determination of endogenous TM concentration. All samples were frozen and stored in a −80° C. refrigerator.
(§3) The concentrations of TM and TDP in the samples were determined by HPLC-FLD.
(§4) The non-compartment model of the DAS software was used to calculate the pharmacokinetic parameters of TM and TDP in blood of rats after administration. The concentration of TM in the brain tissue after the drug administration in rats was measured, and the mean value and standard deviation were calculated. The area under the drug-time curve AUC was calculated using the trapezoidal method.

[2] = Pharmacokinetic study, absorption test (TM and TDP in whole blood); assay type: in vivo, SD rats; conditions: same drug dose, single gavage, rats
Description: as §1, §2
The SD rats were divided into 3 groups (6 rats in each group, half male and half female). […] Blood was collected (about 200 µL/time) before drug administration (0 min) and 3 min, 8 min, 15 min, 30 min, 1 h, 2 h, 3 h, 5 h, 8 h, 12 h, 24 h and 48 h after drug administration. Blood was anticoagulated with EDTA and placed on ice after collection. […]
as §3, §4

Structure (SMILES): CCCC(CCC)C(=O)S/C(CCOP(=O)(O)O)=C(/C)N(C=O)Cc1cnc(C)nc1N [Compound 1, (Z)—S-(2-(N-((4-amino-2-methylpyrimidin-5-yl)methyl)formamido)-5-(phosphonooxy)pent-2-en-3-yl) 2-propylpentanethioate]
- AUC of TM in the brain, times of that of BTMP administration group [1]: 1.56 times
- AUC of TM in the brain, times of that of the Comparative compound 2 administration group [1]: 2.08 times
- AUC of TM in the brain ([1]; trapezoidal method, calculated after deducting the concentration at time zero): 1156.6 ng·h/g
- TM and TDP exposures compared with BTMP and Comparative compound 2 administration groups [2]: higher
- t1/2 of TDP compared with BTMP or Comparative compound 2 administration group [2]: significantly higher

Source: patent US20240270771A1, “Compound containing phosphate group, pharmaceutical composition containing same, preparation method therefor and use thereof” (SHANGHAI RAISING PHARMACEUTICAL CO., LTD., priority 2021, published 2024)
